Earlier results in PMC5796656 (Journal of the American Chemical Society, 2015).

Conditions: ref [26]

O=C([O-])CN1CCN(CC(=O)[O-])CCN(CC(=O)[O-])CCN(CC(=O)[O-])CC1.[Gd+3] [GdDOTA]
τM: 243 ns
